Patent US11523610B2, “Regulating plant growth using a diapocarotenoid” (King Abdullah University of Science and Technology, priority 2018, dated 2022)

How the values were obtained:
[1] = system: Arabidopsis seedlings (anchor roots after RAM excision); assay: ANR formation after root apical meristem excision (ANR-RE); assay type: in vivo
Source text: (§1) ANRs were counted in seedlings vertically grown on half strength MS (with 0.5% sucrose +1% agar, 0.5 g/L MES, pH 5.7) media 8 days post-stratification (dps) using a dissection microscope. To investigate ANR formation after root apical meristems (RAM) excision (ANR-RE), RAM of seedlings were excised using sterile scalpels at 5 dps and then grown for another 3 days prior to counting the number of emerged ANRs. RAM of seedlings were excised at 8 dps and then grown for another 3 days prior to counting the number of emerged LRs. For determining the effect of anchorene on lateral roots, the number of emerged lateral roots were counted using a dissection microscope at 8 dps. For primary root length measurements, seedlings were measured using the publicly available ImageJ software (downloaded from rsbweb.nih.gov/ij/) after taking digital photographs. For adventitious root assay, the number of emerged adventitious roots per plant were counted after 5 days of treatment on plates with or without anchorene.
ANR formation under carotenoid-deficient conditions was monitored to determine the role of endogenous carotenoids in ANR development. […] Therefore, ANR formation was monitored after RAM excision (ANR-RE) to stimulate ANR development. ANR measurements were used as an indicator of ANR formation capacity under different conditions. […] Norflurazon (NF) and 2-(4-chlorophenylthio)-triethylamine hydrochloride (CPTA), which block phytoene desaturation and lycopene cyclization, respectively were tested (FIG. 6A). The effect of D15, an inhibitor of CCDs was also investigated. Application of D15 to Arabidopsis seedlings is known to lead to an increase in carotenoid levels.

[2] = system: Arabidopsis seedlings (anchor roots); assay: Anchor root (ANR) emergence/formation in seedlings without RAM excision; assay type: in vivo; details: for activity in promoting ANR formation: anchorene isomer and derivatives, concentrations as indicated in FIGS. 3G-H
Experimental: (§2) Sterilized Col-0 and mutants seeds were kept at 4° C. in darkness for 3 days to stimulate seed germination, and then sown on half strength MSO plates (with 0.5% sucrose +1% agar, 0.5g/L MES, pH 5.7) supplemented with the indicated chemicals as described below or in the Figures. Plates were vertically grown in PERCIVAL® growth chambers under long day (16 h light/8 h dark, 22° C., 60% relative humidity, light density: 4000 LUX) LED white light [HYPERIKON® 16 W LED Light Bulb A21, 16 W (100 W Equivalent), CRI92, 1620 Lumens, 4000K (Daylight Glow)] conditions. Light fluorescence rates were measured using a digital LUX meter (PEAKTECH® 5025).
as §1
Prior to the anchor root (ANR) measurements, seeds from 10 ecotypes (Po-0, Is-0, Wu-0, Col-0, Cvi-0, Hi-0, Ove-0, Sav-0, Ler and Kin-0) were harvested from plants grown in long-day photoperiod conditions (16h light/8 h darkness, 22° C., 60% humidity). Seeds of all 10 ecotypes were surfaced sterilized and incubated in sterile water at 4° C. for 8 days, for uniform germination. Natural ANR emergence and ANRC was measured as described above (Anchor root assays) for each ecotype. 20 μM anchorene was used to test the responses of the Po-0 and Is-0 ecotypes to anchorene.
Excision of the root apical meristems (RAM) triggers ANR formation (FIGS. 3C-D). […] About 9% of control Col-0 seedlings developed ANRs under normal conditions, while approximately 50% formed ANRs upon RAM excision (FIGS. 4B-C). […] Higher anchorene concentrations (10 and 20 μM) enhanced this ratio to 97% and 100%, respectively (FIGS. 4B-C). There was also an increase in the number of seedlings that developed two ANRs from 0% in the untreated control to approximately 80% upon application of 20 μM anchorene (FIGS. 4B-C). Using a wide range of concentrations, a dose-response curve was established in the presence and absence of RAM excision. […] Thus, the promotion of ANRs is not caused by inhibiting primary root growth.

[3] = system: Arabidopsis root growth (Col-0 seedlings); assay: Primary root length of Arabidopsis seedlings on treated half MS agar plates; assay type: in vivo; details: 25 μM, 7 dps
Experimental: β-cyclocitral, β-ionone and D′orenone (β-Apo-13-caroteneone) (FIG. 1A) were purchased from Buchem (Netherlands). Diapo1, Diapo2, Diapo3, Diapo4, Diapo5, and Diapo6 (FIG. 1B) were synthesized by Buchem (Netherlands). Diapo3 was also synthesized together with D6-anchorene and anchorene derivatives according to the protocol of SCHEME 2. Apocarotenoids and diapocarotenoids were dissolved in acetone to make stock solutions (10 mM). For the screening experiments, each chemical was diluted in half strength Murashige and Skoog (MS) media (with 0.5% sucrose+1% agar, 0.5 g/L MES, pH 5.7) to reach indicated concentrations of 25 μM and 5 μM. A stock solution of 10 mM GR24 (Chiralix, Netherlands) was also made by diluting GR24 in acetone. Stock solutions of D15 (100 mM), Norflurazone (5 mM), and CPTA (50 mM) were made in dimethyl sulfoxide (DMSO). For experiments, these compounds were diluted in concentrations of 125 μM D15, 500 nM Norflurazone, or 100 μM CPTA, respectively. 1-Naphthaleneacetic acid (NAA) and N-1-Naphthylphthalamic Acid (NPA) were purchased from Sigma-Aldrich (Germany) and dissolved in water to make 1 mM stock solutions. For NAA and NPA treatments, media containing 0.1 μM NAA and 1 μM NPA were used. Unless otherwise noted, all commercially available compounds were used as provided without further purification.
as §2, with “([…]®” for “(PEAKTECH®”
as §1
Six previously identified or predicted diapocarotenoids with chain lengths ranging from C9 to C15 (Diapo1-6) (FIG. 1B) and 3 apocarotenoids (FIG. 1C) were selected to identify new carotenoid-derived signals involved in root development). These compounds were selected because they are available and stable at ambient conditions. Diapo1 (C9) is the expected product formed upon cleavage of all-trans-β-apo-10′ carotenal. Diapo2 (C10) results from cleaving the C7, C8 and C15, C15′ double bonds in different carotenoids and is produced by cyanobacterial retinal-forming enzymes from Cm-apocarotenoids. Diapo3 (C10) is a structural isomer of Diapo2 and a predicted cleavage product that can be formed by cutting the C11, C12 and C11′, C12′ bonds in almost all plant carotenoids (FIGS. 1A, 1B and 17). Diapo4 (C12) results from cleaving the C7, C8 and C13′, C14′ bonds in many carotenoids, and is formed by the CCD1 from apo-10′-lycopenal.

pDR5::LUC seedlings = assay: Luciferase assay in pDR5::LUC auxin marker line; assay type: in vivo, Arabidopsis; details: 1 μM NF, 20 μM anchorene
Experimental: Luciferase activity was assayed as previously described. Briefly, 1 mL of 5 mM Potassium Luciferin (Gold Biotechnology®) dissolved in water was directly applied to pDR5:LUC seedlings grown vertically on treated half strength MS plates. The luciferin solution was allowed to dry for 5-10 minutes in the dark, at room temperature. Seedlings were then imaged using a Lumazone™ CA automated Chemiluminescence system. Seven minute exposure times were used.
A pDR5::LUC line, which marks LR prebranch sites, was used to track ANR development. […] ANR primordia initiation was observed as early as 3 dps, in anchorene treated pDR5::LUC and 158 pDR5rev::GFP seedling (FIGS. 5A-C).

pDR5rev::GFP seedlings = assay: Confocal microscopy of pDR5rev::GFP auxin marker line; assay type: in vivo, Arabidopsis; details: single compound, 20 μM anchorene, 1 μM NF
Source text: To examine pDR5Rev::GFP fluorescence at the collet region, live seedlings were directly used for laser scanning confocal microscopy (Zeiss LSM 510 microscope) examination.
For fluorescence intensity quantification of pDR5Rev::GFP and pPIN3::PIN3-GFP marker lines, ImageJ software (rsbweb.nih.gov/ij/) was used after taking confocal microscopy photos. All calculations are background subtracted.

[4] = LC-MS quantification of anchorene in Arabidopsis tissues
Experimental: About 30 mg (30-40 mg) of freeze-dried and ground Arabidopsis seedlings tissues were extracted using 1 mL of acetonitrile with anti-oxidant [0.1% butylated hydroxytoluene (BHT)] for 15 min in an ultrasonic bath (Branson® 5510EDTH, 25° C., 15 min), followed by centrifugation for 8 min at 13000 rpm at 4° C. The collected supernatant was dried using a concentrator (Labconco RapidVap® System). The extract was derivatized (SCHEME 3) with 50 μL of derivatization solution containing 5 mg/mL derivatization reagent (N^2,N^2,N^4,N^4-tetraethyl-6-hydrazineyl-1,3,5-triazine-2,4-diamine) (Chemspace) and 1% formic acid in methanol at 37° C. for 15 min. Then the sample solution was diluted to 150 μL with 1% formic acid in methanol and filtered by using 0.22 μm filter before LC-MS analysis.
The quantitative analysis of derivative anchorene were carried out on HPLC-Q-Trap MS/MS. Chromatographic separation was achieved on an Acquity UPLC CSH C18 column (50×2.1 mm; 1.7 μm; Waters) using a mobile phase consisting of water: acetonitrile (95:5, v:v, A) and pure acetonitrile (B), both containing 0.1% formic acid. A gradient was applied, starting with 10% B and increasing to 40% B over 5 min. Then 15% B was increased
within 10 min followed by an increase of 45% B over 2 min. And then 100% B was maintained for 10 min. To equilibrate the column before the next run, the mobile phase was adjusted back to 10% B in 1 min and this concentration was maintained for 8 min prior to the next sample injection. A flow rate of 0.15 mL/min and a column temperature of 40° C. were maintained throughout the run. The eluent of the column was introduced to the mass spectrometer using turbo spray ion source in positive mode. The injection volume was 10 μL. The conditions of the mass spectrometer were set as following: curtain gas: 30; ion spray voltage: 5 kV; temperature: 400° C.; ion source gas 1: 30; ion source gas 2: 40; declustering potential, 55; entrance potential: 10; collision energy: 25; collision cell exit potential: 10. […]

[5] = 1 μM NF, 100 μM CPTA, 150 μM D15, RAM cut at 5 DAG, grown 3 more days

Structure (SMILES): CC1=CC(=O)CC(C)(C)[C@@]1(O)/C=C/C(C)=C\C(=O)O [ABA, abscisic acid]
- ANR-RE ([1]; 0.1 and 0.5 μM ABA): did not impact

Structure (SMILES): C\C(=C/C=C/C=C(\C)C(=O)O)C(=O)O [AR di-acid, (2E,4E,6E)-2,7-dimethylocta-2,4,6-trienedioic acid]
- activity in promoting ANR formation [2]: inactivity

Structure (SMILES): C\C(=C/C=C/C=C(\C)CO)CO [AR di-alcohol, (2E,4E,6E)-2,7-dimethylocta-2,4,6-triene-1,8-diol]
- activity in promoting ANR formation [2]: inactivity

Structure (SMILES): CCOC(=O)/C(C)=C/C=C/C=C(\C)C(=O)OCC [AR di-ethyl ester, diethyl (2E,4E,6E)-2,7-dimethylocta-2,4,6-trienedioate]
- activity in promoting ANR formation [2]: inactivity

Structure (SMILES): CCN(CC)CCSc1ccc(Cl)cc1.Cl [CPTA, 2-(4-chlorophenylthio)-triethylamine hydrochloride]
- ANR-RE [1, 5]: strongly reduced

Structure (SMILES): CC(/C=C/C=O)=C\C=C\C=O [Diapo1, 10,14′-diapocarotene-10,14′-dial]
- inhibition of primary root growth [3]: weak inhibition

Structure (SMILES): C\C(C=O)=C/C(C)=C/C=C/C=O [Diapo2, 8,15-diapocarotene-8,15-dial]
- ANR formation ([2]; 25 μM (FIGS. 3G-H)): modest increase
- reduction in primary root growth [3]: approximately 80%

Structure (SMILES): C\C(C=O)=C/C(C)=C/C=C/C=C/C=O [Diapo4, 8,14′-diapocarotene-8,14′-dial]
- inhibition of primary root growth [3]: weak inhibition

Structure (SMILES): C\C(C=O)=C/C=C/C=C/C=C(C)/C=C(\C)C=O [Diapo5, 8,12′-diapocarotene-8,12′-dial]
- reduction in primary root growth [3]: approximately 80%

Structure (SMILES): CC1=C[C@H](O/C=C2/C(=O)O[C@@H]3c4ccccc4C[C@H]23)OC1=O [GR24]
- ANR formation (ANR-RE) ([1]; 1 μM GR24): inhibited ANR formation

Structure (SMILES): O=C(O)Cc1cccc2ccccc12 [NAA, 1-Naphthaleneacetic acid]
- ANR-RE ([1]; 0.1 μM NAA, 1 μM NPA): greatly increased

Structure (SMILES): CNc1cnn(-c2cccc(C(F)(F)F)c2)c(=O)c1Cl [NF, Norflurazon]
- LUC signal in the collet (pDR5::LUC seedlings): clear LUC signal was detected
- ANR-RE [1, 5]: strongly reduced
- GFP signal at the collet / ANR primordia (pDR5rev::GFP seedlings): No significant reduction
- anchorene content of whole seedlings after NF treatment ([4]; 24 hours NF treatment, 2 μM NF): decreases
- anchorene content of whole seedlings after NF treatment ([4]; continuous NF treatment): greatly decreases

Structure (SMILES): O=C(O)c1ccccc1C(=O)Nc1cccc2ccccc12 [NPA, N-1-Naphthylphthalamic Acid]
- ANR-RE ([1]; 0.1 μM NAA, 1 μM NPA): completely blocked
